Measurements: patent US20120059053A1, “COMPOUNDS OF 2,3-DIHYDRO-BENZOFURAN” (FERRER INTERNATIONAL, S.A., priority 2007, published 2012)

Tests used:
[1] = Levels in rat plasma after po administration; format: in vivo; conditions: 15 min after po administration of 1 mg/Kg
[2] = Brain/plasma ratio; conditions: in vivo
[3] = Metabolic stability by disappearance of compound on incubation in human microsomes; conditions: 120 min, 1 μM

Compound	concentration at 15 min [1]	brain/plasma ratio [2]	metabolic stability [3]
CCC(=O)NCC[C@@H]1CCc2ccc(OC)cc21 [(1S)-N-[2-(6-methoxy-indan-1-yl)-ethyl]-propionamide]	10.1 ng/mL	zero	less than 30%
COc1ccc2c(c1)C(CCNC(C)=O)CO2 (stereo not shown) [Example 1, N-[2-(5-methoxy-2,3-dihydro-benzofuran-3-yl)-ethyl]-acetamide]	98 ng/mL		
